Measurements published in ChEMBL document CHEMBL4033623, “Synthesis of xanthone derivatives and studies on the inhibition against cancer cells growth and synergistic combinations of them” (Eur J Med Chem, 2017).
Calls of active or inactive are those of the source. The calls are words filed in the database; no cut-off is given here.

Tests used:
MDA-MB-231 [1] = test: Synergistic antiproliferative activity against human MDA-MB-231 cells at compound to DMXAA mol ratio of 1:1 after 48 hrs by CCK8 assay relative to compound alone; type: functional
K562 = test: Synergistic antiproliferative activity against human K562 cells at compound to DMXAA mol ratio of 1:1 after 48 hrs by CCK8 assay; type: functional, cell-based; conditions: K562, 48 h
MDA-MB-231 [2] = test: Synergistic induction of apoptosis in human MDA-MB-231 cells assessed as increase in cleaved PARP level at 0.1 to 0.5 uM after 48 hrs in presence of DMXAA by Western blot analysis; type: functional, cell-based
MDA-MB-231 [3] = test: Synergistic induction of apoptosis in human MDA-MB-231 cells assessed as late apoptotic cells at 0.2 uM after 48 hrs in presence of DMXAA by Annexin-V/FITC/PI staining based flow cytometry (reference value: 0.00 %); type: functional
MDA-MB-231 [4] = test: Cell cycle arrest in human MDA-MB-231 cells assessed as increase in accumulation at G2/M phase at 0.8 uM after 48 hrs by propidium iodide staining based flow cytometric method relative to control; type: functional
MDA-MB-231 [5] = test: Induction of apoptosis in human MDA-MB-231 cells after 48 hrs by Annexin-V/FITC/PI staining based flow cytometry; type: functional, cell-based
HepG2 = test: Synergistic antiproliferative activity against human HepG2 cells at compound to DMXAA mol ratio of 1:1 after 48 hrs by CCK8 assay; type: functional, cell-based; conditions: HepG2, 48 h
MDA-MB-231 [6] = test: Synergistic induction of apoptosis in human MDA-MB-231 cells assessed as decrease in caspase-3 level at 0.1 to 0.5 uM after 48 hrs in presence of DMXAA by Western blot analysis; type: functional, cell-based
MDA-MB-231 [7] = test: Decrease in MDM2 level in human MDA-MB-231 cells at 0.2 to 0.8 uM after 48 hrs by Western blot analysis; type: functional, cell-based
MDA-MB-231 [8] = test: Synergistic induction of apoptosis in human MDA-MB-231 cells assessed as decrease in caspase-9 level at 0.1 to 0.5 uM after 48 hrs in presence of DMXAA by Western blot analysis; type: functional, cell-based
L02 = test: Cytotoxicity against human HL-7702 cells after 48 hrs by CCK8 assay; type: cell-based; conditions: L02, 48 h
MDA-MB-231 [9] = test: Synergistic decrease in MDM2 level in human MDA-MB-231 cells at 0.1 to 0.5 uM after 48 hrs in presence of DMXAA by Western blot analysis; type: functional, cell-based
MDA-MB-231 [10] = test: Induction of apoptosis in human MDA-MB-231 cells assessed as viable cells at 0.4 uM after 48 hrs by Annexin-V/FITC/PI staining based flow cytometry (reference value: 96.51 %); type: functional; conditions: MDA-MB-231, 48 h, read-out: Activity
MDA-MB-231 [11] = test: Induction of apoptosis in human MDA-MB-231 cells assessed as necrotic cells at 0.8 uM after 48 hrs by Annexin-V/FITC/PI staining based flow cytometry (reference value: 1.55 %); type: functional
MDA-MB-231 [12] = test: Increase in p53 level in human MDA-MB-231 cells at 0.2 to 0.8 uM after 48 hrs by Western blot analysis; type: functional, cell-based
MDA-MB-231 [13] = test: Synergistic induction of apoptosis in human MDA-MB-231 cells assessed as necrotic cells at 0.2 uM after 48 hrs in presence of DMXAA by Annexin-V/FITC/PI staining based flow cytometry (reference value: 0.00 %); type: functional
MDA-MB-231 [14] = test: Induction of apoptosis in human MDA-MB-231 cells assessed as early apoptotic cells at 0.4 uM after 48 hrs by Annexin-V/FITC/PI staining based flow cytometry (reference value: 0.44 %); type: functional
MDA-MB-231 [15] = test: Induction of apoptosis in human MDA-MB-231 cells assessed as late apoptotic cells at 0.2 uM after 48 hrs by Annexin-V/FITC/PI staining based flow cytometry (reference value: 1.50 %); type: functional
COLO 320 = test: Antiproliferative activity against human COLO320 cells after 48 hrs by CCK8 assay; type: functional, cell-based; conditions: COLO 320, 48 h
MDA-MB-231 [16] = test: Induction of apoptosis in human MDA-MB-231 cells assessed as viable cells at 0.2 uM after 48 hrs by Annexin-V/FITC/PI staining based flow cytometry (reference value: 96.51 %); type: functional; conditions: MDA-MB-231, 48 h, read-out: Activity
MDA-MB-231 [17] = test: Synergistic induction of apoptosis in human MDA-MB-231 cells assessed as late apoptotic cells at 0.8 uM after 48 hrs in presence of DMXAA by Annexin-V/FITC/PI staining based flow cytometry (reference value: 0.00 %); type: functional
MCF7 = test: Antiproliferative activity against human MCF7 cells after 48 hrs by CCK8 assay; type: functional, cell-based; conditions: MCF7, 48 h
MDA-MB-231 [18] = test: Synergistic cell cycle arrest in human MDA-MB-231 cells assessed as accumulation at S phase 0.2 to 0.8 uM after 48 hrs in presence of DMXAA by propidium iodide staining based flow cytometric method relative to control; type: functional
MDA-MB-231 [19] = test: Synergistic induction of apoptosis in human MDA-MB-231 cells assessed as viable cells at 0.4 uM after 48 hrs in presence of DMXAA by Annexin-V/FITC/PI staining based flow cytometry (reference value: 99.95 %); type: functional; conditions: MDA-MB-231, 48 h, read-out: Activity
MDA-MB-231 [20] = test: Induction of apoptosis in human MDA-MB-231 cells assessed as viable cells at 0.8 uM after 48 hrs by Annexin-V/FITC/PI staining based flow cytometry (reference value: 96.51 %); type: functional; conditions: MDA-MB-231, 48 h, read-out: Activity
MDA-MB-231 [21] = test: Synergistic induction of apoptosis in human MDA-MB-231 cells assessed as early apoptotic cells at 0.8 uM after 48 hrs in presence of DMXAA by Annexin-V/FITC/PI staining based flow cytometry (reference value: 0.05 %); type: functional
MDA-MB-231 [22] = test: Antiproliferative activity against human MDA-MB-231 cells after 48 hrs by CCK8 assay; type: functional, cell-based; conditions: MDA-MB-231, 48 h
MDA-MB-231 [23] = test: Decrease in caspase-9 level in human MDA-MB-231 cells at 0.2 to 0.8 uM after 48 hrs by Western blot analysis; type: functional, cell-based
MDA-MB-231 [24] = test: Induction of apoptosis in human MDA-MB-231 cells assessed as early apoptotic cells at 0.2 uM after 48 hrs by Annexin-V/FITC/PI staining based flow cytometry (reference value: 0.44 %); type: functional
MDA-MB-231 [25] = test: Induction of apoptosis in human MDA-MB-231 cells assessed as early apoptotic cells at 0.8 uM after 48 hrs by Annexin-V/FITC/PI staining based flow cytometry (reference value: […] %); type: functional
MDA-MB-231 [26] = test: Synergistic induction of apoptosis in human MDA-MB-231 cells assessed as late apoptotic cells at 0.4 uM after 48 hrs in presence of DMXAA by Annexin-V/FITC/PI staining based flow cytometry (reference value: 0.00 %); type: functional
MDA-MB-231 [27] = test: Induction of apoptosis in human MDA-MB-231 cells assessed as necrotic cells at 0.2 uM after 48 hrs by Annexin-V/FITC/PI staining based flow cytometry (reference value: 1.55 %); type: functional
MDA-MB-231 [28] = test: Synergistic induction of apoptosis in human MDA-MB-231 cells assessed as viable cells at 0.2 uM after 48 hrs in presence of DMXAA by Annexin-V/FITC/PI staining based flow cytometry (reference value: 99.95 %); type: functional; conditions: MDA-MB-231, 48 h, read-out: Activity

## O=c1c2cc(Br)ccc2oc2cc(O)cc(O)c12
MDA-MB-231 [1]
  fold change (FC): 10
K562
  IC50: 10.2 µM
MDA-MB-231 [2]
  Activity: Active
MDA-MB-231 [3]
  Activity: 10.2%
MDA-MB-231 [4]
  Activity: 21.8%
MDA-MB-231 [5]
  Activity: Dose-dependent effect
HepG2
  IC50: 7.21 µM
MDA-MB-231 [6]
  Activity: Active
MDA-MB-231 [7]
  Activity: Active
MDA-MB-231 [8]
  Activity: Active
L02
  IC50: 565 µM
MDA-MB-231 [9]
  Activity: Active
MDA-MB-231 [10]
  viability at 0.4 µM: 47.9%
MDA-MB-231 [11]
  Activity: 45.02%
MDA-MB-231 [12]
  Activity: Active
MDA-MB-231 [13]
  Activity: 38.43%
MDA-MB-231 [14]
  Activity: 1.74%
MDA-MB-231 [15]
  Activity: 5.35%
COLO 320
  IC50: 10.5 µM
MDA-MB-231 [16]
  viability at 0.2 µM: 79.2%
MDA-MB-231 [17]
  Activity: 34.65%
MCF7
  IC50: 3.4 µM
MDA-MB-231 [18]
  Activity: 26.5%
MDA-MB-231 [19]
  viability at 0.4 µM: 46.3%
MDA-MB-231 [20]
  viability at 0.8 µM: 39.1%
MDA-MB-231 [21]
  Activity: 6.81%
MDA-MB-231 [22]
  IC50: 460 nM
MDA-MB-231 [23]
  Activity: Active
MDA-MB-231 [24]
  Activity: 0.98%
MDA-MB-231 [25]
  Activity: 2.21%
MDA-MB-231 [26]
  Activity: 26.7%
MDA-MB-231 [27]
  Activity: 14.44%
MDA-MB-231 [28]
  viability at 0.2 µM: 48.6%
